Results on one compound are retold here after PMC11434480, “Discovery and Optimization of Ergosterol Peroxide Derivatives as Novel Glutaminase 1 Inhibitors for the Treatment of Triple-Negative Breast Cancer” (Molecules, 2024).

Broadly, the IC50 is the concentration needed to halve the response being measured.

The test system of data set [1] is A549. The data set is described as follows: MTT antiproliferative assay, A549. It is filed as cell-based, human. The note with it: Homo sapiens, A549, 48 h, mean of three experiments ± SD. For orientation: Formazan colour is commonly taken as a measure of viable cells.
Protocol: (§2) The in vitro antiproliferative activity of the novel EP derivatives (1a–h, 2a–h, 3a–h, and 4a–h) was evaluated on four different human cancer cell lines (A549, HepG2, MCF-7, and MDA-MB-231) using an MTT assay.
(§3) Cells containing 10% fetal bovine serum (FBS; WISENT, Nanjing, China) were cultured in an L-15 culture medium (L-15, BOSTER, Wuhan, China) in an incubator at 37 °C. The cells were then inoculated into 96-well plates at a density of 5 × 10^3/well, cultured in 100 μL L-15 medium for 24 h, and incubated with the compound to be tested for 48 h. Next, 20 μL of MTT (5 mg/mL) solution was added and incubated at 37 °C for 4 h away from light. A resorption culture medium was then supplemented with 150 μL DMSO per well. The absorbance was measured at 570 nm using an enzymometer (SAFIRE2, Tecan, Swiss Confederation, Männedorf, Switzerland). The cytotoxic activity was presented in terms of half the inhibition rate.
Data set [2] has as its system HepG2. The data set is described as follows: MTT antiproliferative assay, HepG2. It is filed as cell-based, human. The following applies: Homo sapiens, HepG2, 48 h, mean of three experiments ± SD.
Protocol: as §2, §3
For data set [3], the system named is MCF-7. Kind of data set: MTT antiproliferative assay, MCF-7. Type of data set: cell-based, human. The note with it: Homo sapiens, MCF7, 48 h, mean of three experiments ± SD.
Protocol: as §2, §3
The test system of data set [4] is MDA-MB-231. The data set is described as follows: MTT antiproliferative assay, MDA-MB-231. Type of data set: cell-based, human.
Protocol: as §2, §3
The target in data set [5] is T1, human GLS1 (Homo sapiens, UniProt O94925).
T1 sequence (O94925 55-669): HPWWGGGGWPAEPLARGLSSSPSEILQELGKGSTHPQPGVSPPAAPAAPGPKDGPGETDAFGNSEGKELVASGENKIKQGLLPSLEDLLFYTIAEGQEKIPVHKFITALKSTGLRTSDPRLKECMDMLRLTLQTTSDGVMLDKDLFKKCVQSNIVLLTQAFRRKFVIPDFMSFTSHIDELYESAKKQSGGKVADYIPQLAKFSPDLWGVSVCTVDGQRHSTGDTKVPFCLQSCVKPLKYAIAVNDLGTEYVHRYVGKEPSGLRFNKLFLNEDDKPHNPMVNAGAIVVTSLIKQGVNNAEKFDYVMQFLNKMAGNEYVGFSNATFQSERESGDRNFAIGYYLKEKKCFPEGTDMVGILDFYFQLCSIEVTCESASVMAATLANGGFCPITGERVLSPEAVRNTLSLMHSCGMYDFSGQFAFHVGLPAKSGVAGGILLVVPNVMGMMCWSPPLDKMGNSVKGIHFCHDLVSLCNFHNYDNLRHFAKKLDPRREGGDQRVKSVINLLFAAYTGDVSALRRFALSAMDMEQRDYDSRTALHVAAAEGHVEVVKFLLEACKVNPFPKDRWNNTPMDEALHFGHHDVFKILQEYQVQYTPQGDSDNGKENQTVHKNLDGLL
Kind of data set: GLS1 inhibitor screening kit in MDA-MB-231 cells. Type of data set: cell-based. The note with it: 48 h, read-out: GLS1 inhibition IC50. As to the method:
The GLS1 inhibitory activity of compound 3g in MDA-MB-231 cells was evaluated using a GLS1 inhibitor screening kit.
MDA-MB-231 cells were cultured for 24 h and then incubated with different concentrations of 3g or 0.1%DMSO for 48 h and washed with PBS 1–2 times. The cells were then collected, subjected to ultrasound in an ice bath for 5 min, and centrifuged at 4 °C and 1200 g for 15 min. Next, the GLS1 activity in human GLS1 was evaluated according to the manufacturer’s guidelines using a GLS1 screening kit (Sangon Biotech #D799306, Shanghai, China) in a 96-well plate (Corning # 351172, New York, NY, USA).

For data set [6], the system named is MDA-MB-231 cells. The data set is described as follows: Colony formation assay. It is filed as cell-based. The note with it: Homo sapiens, MDA-MB-231 colony formation, vs blank control, read-out: proliferation inhibition rate. As to the method:
To explore the inhibitory effect of 3g on the proliferation of MDA-MB-231 cells, we treated MDA-MB-231 cells with different concentrations of 3g and EP.
MDA-MB-231 cells (1000 cells/well) were seeded into a 6-well plate with 2 mL L–15 culture medium and incubated at 37 °C for 24 h. Following this process, different concentrations of 3g or EP were added and incubated for an additional 24 h before the culture medium was replaced. The cells then continued to be cultured for two weeks, with the culture medium being changed twice a week. After two weeks, the cell colonies were washed with PBS, fixed using a 4% paraformaldehyde solution (Beyotime, Shanghai, China), and subsequently stained with a 0.05% crystal violet solution (Beyotime, Shanghai, China).

Data set [7] relates to MDA-MB-231 cells. Kind of data set: Annexin V-FITC/PI apoptosis assay (flow cytometry). It is filed as cell-based, human. The note with it: Annexin V-FITC/PI double staining, 48 h. As to the method:
(§1) To determine whether the decrease in MDA-MB-231 cell viability observed after 3g treatment was related to apoptosis, we treated MDA-MB-231 cells with 3g and assessed the changes in apoptosis.
An Annexin V FITC/PI apoptosis detection kit (Keygen Company, Nanjing, China) was employed to identify apoptotic cells. Briefly, MDA-MB-231 cells were subjected to treatment with varying concentrations of 3g or 0.1% DMSO and incubated at 37 °C for 48 h. Subsequently, the cells were harvested and resuspended in PBS at a concentration of 1 × 10^5 cells/mL. Following centrifugation at 2000 rpm/min for 5 min, 500 μL binding buffer, 5 μL Annexin V FITC, and 5 μL propidium iodide (PI) were added. The mixture was then incubated at room temperature in the absence of light for 20 min. Finally, the samples were analyzed using FACSCalibur flow cytometry (Becton, Dickinson and Company, Franklin Lakes, USA).
For orientation: A flow cytometer gives signals particle by particle.

The subject of data set [8] is MDA-MB-231 cells. Type of data set: cell-based, human. The following applies: 2, 4 and 8 μM, 48 h.
The test system of data set [9] is MDA-MB-231 cells. The data set is described as follows: ROS assay (DCFH-DA, confocal microscopy and flow cytometry). It is filed as cell-based, human. The following applies: MDA-MB-231, different concentrations, 48 h. As to the method: Excessive ROS in tumor cells can induce tumor cell apoptosis. Nevertheless, the ROS levels in tumor cells were often influenced by glutamine. Thus, the regulation of glutamine metabolism was crucial for ROS homeostasis. In this study, laser confocal microscopy and flow cytometry were employed to detect the ROS level.
MDA-MB-231 cells were inoculated in 24-well plates at a density of 8 × 10^3 cells per well and incubated with different concentrations of 3 g or 0.1% DMSO for 48 h. The cells were washed with PBS 1–2 times. The cells were then incubated at 37 °C for 20 min with reference to a DCFH-DA fluorescent probe kit (Keygen Company, Nanjing, China) and washed with a serum-free medium 1–2 times. The ROS levels were observed via laser confocal microscopy (LSM710, Zeiss, Oberkochen, Germany) or detected with flow cytometry (FACS Calibur, Becton, Dickinson and Company, Franklin Lakes, NJ, USA).

Data set [10] relates to MDA-MB-231 cells. Kind of data set: Western blot of apoptosis proteins. It is filed as cell-based, human. The following applies: MDA-MB-231, 48 h. As to the method:
as §1
MDA-MB-231 cells were subjected to treatment with different concentrations of 3g or 0.1% DMSO for 48 h. Subsequently, the cells were gathered, and the total protein was extracted by adding protease inhibitors and phosphatase inhibitors along with 1 × RIPA lysis buffer (Beyotime Company). The quantification of the extracted protein was carried out using a BCA kit (ComWin Biotech Company, Beijin, China). The extracted total protein, with an amount of 20 μg/well, underwent SDS–polyacrylamide gel electrophoresis (SDS-PAGE, provided by BioRad Laboratories located in Hercules, CA, USA). The protein was then wet-transferred to a PVDF membrane. Next, GLS1, Bcl-2, Bax, Cyt C, caspase-9, cleaved caspase-9, caspase-3, cleaved caspase-3, and GAPDH were incubated at 4 °C overnight. Subsequently, the secondary isotype-specific antibody, which was labeled with horseradish peroxidase, was obtained from Cell Signaling Technology. The color was developed with an ECL luminescent solution (Meilun Biotech Company, Dalian, China) and detected using a gel imager (ChemiDoc MP, BioRad Laboratories, CA, USA).

Data set [11] deals with 4T1 cells. The data set is described as follows: 4T1 transplanted tumor model in BALB/c mice.
Setting [12] is: 25 and 50 mg/kg/2 days, intraperitoneal, 14 days.

With `COc1ccc(NC(=O)CCCC(=O)OC2CCC3(C)C4CCC5(C)C(C(C)C=CC(C)C(C)C)CCC5C45C=CC3(C2)OO5)cc1` (stereo not drawn) [Compound 3g], the IC50 in data set [1] came to 13.5 ± 1.14 µM; in data set [2], 15.5 ± 0.63 µM; in data set [3], 4.57 ± 0.62 µM; in [4] (Homo sapiens, MDA-MB-231, MTT, 48 h, mean of three experiments ± SD), 3.2 ± 0.29 µM; in data set [5], 3.77 µM. Further, in [4] (ratio of IC50 values, EP vs compound), the “fold higher activity than EP against MDA-MB-231” value is 5.4 fold. For the same compound, the inhibition at 2 µM in [6] is 56.3%. Besides, in data set [7], the “apoptosis of MDA-MB-231 cells” value is listed as “increased significantly”. For the same compound, in data set [8], the “glutamate production in MDA-MB-231 cells” value is “reduced the production of glutamate in MDA-MB-231 cells in a dose-dependent manner”. Moreover, in data set [9], the “intracellular ROS level” value is “significantly elevated the intracellular ROS level”. The “expression of Bax, Cyt C, cleaved caspase-9 and cleaved caspase-3” value in data set [10] is reported as “significantly upregulated”. For the same compound, in data set [10], the “expression of Bcl-2” value is on record as “decreased the expression”. Also, in data set [11] (setting [12]), the “effect on body weights of the mice” value is “no significant effect”. Besides, the “tumor volume and tumor weight” value in data set [11] (setting [12]) is “significantly reduced”. For the same compound, in data set [11] (25 and 50 mg/kg/2 days, intraperitoneal, 14 days, vs blank control), the tumor growth entry is given as “effectively inhibited”. Besides, the “therapeutic effect in mouse model of breast cancer” value in data set [11] (dose of 50 mg/kg) is reported as “remarkable therapeutic effects”. Also, in data set [11] (dose of 50 mg/kg), the “toxicity in mouse model of breast cancer” value was “no apparent toxicity”. Also, in data set [11] (tumor-bearing mice, 14 days treatment), the “histopathological changes in heart, liver, spleen, lungs and kidneys (HE staining)” value is “no histopathological changes”.
